These results are taken from paper PMC10850954, “HDAC6/aggresome processing pathway importance for inflammasome formation is context-dependent” (The Journal of Biological Chemistry, 2024).

For data set [1], the target named is T1, HDAC6 (Homo sapiens, UniProt Q9UBN7).
T1 sequence (Q9UBN7 1-1215): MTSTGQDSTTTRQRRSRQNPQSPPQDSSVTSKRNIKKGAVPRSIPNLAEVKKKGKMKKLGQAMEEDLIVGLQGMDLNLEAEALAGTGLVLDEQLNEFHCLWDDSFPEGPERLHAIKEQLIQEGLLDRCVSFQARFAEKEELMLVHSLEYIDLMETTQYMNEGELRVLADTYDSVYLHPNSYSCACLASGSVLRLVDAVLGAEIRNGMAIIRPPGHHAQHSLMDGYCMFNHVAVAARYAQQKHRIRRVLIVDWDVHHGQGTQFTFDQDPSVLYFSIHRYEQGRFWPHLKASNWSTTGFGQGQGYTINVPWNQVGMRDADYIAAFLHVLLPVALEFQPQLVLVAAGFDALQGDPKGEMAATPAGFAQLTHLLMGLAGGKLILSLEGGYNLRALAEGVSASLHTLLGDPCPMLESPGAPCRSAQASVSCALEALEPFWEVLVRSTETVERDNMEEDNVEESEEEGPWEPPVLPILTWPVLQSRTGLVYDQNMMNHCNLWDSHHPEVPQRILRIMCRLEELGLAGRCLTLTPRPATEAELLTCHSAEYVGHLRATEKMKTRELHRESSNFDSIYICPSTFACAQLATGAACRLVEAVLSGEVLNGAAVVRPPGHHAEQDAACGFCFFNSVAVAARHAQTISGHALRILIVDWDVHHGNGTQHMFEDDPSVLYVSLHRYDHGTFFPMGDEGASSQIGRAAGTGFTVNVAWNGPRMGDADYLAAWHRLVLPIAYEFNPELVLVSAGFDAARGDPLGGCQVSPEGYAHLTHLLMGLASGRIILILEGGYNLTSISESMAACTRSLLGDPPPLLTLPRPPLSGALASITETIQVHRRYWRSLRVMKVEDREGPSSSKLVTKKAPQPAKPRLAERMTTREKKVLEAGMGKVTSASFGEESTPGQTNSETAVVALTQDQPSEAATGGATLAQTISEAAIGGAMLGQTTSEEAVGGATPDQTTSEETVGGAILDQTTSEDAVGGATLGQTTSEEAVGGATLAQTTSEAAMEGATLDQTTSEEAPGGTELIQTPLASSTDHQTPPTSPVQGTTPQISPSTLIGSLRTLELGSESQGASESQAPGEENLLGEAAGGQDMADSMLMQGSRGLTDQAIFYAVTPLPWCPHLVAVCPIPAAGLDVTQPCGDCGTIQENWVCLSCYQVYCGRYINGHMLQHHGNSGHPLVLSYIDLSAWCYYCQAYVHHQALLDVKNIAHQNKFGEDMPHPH
The experiment in a line: HDAC6 degradation in pyrin-expressing U937 cells (immunoblot). In kind it is cell-based. The note with it: 0.1 μM to 10 μM. Set-up: endogenous in cells. (In general: Immunoblotting shows a protein as a band on a membrane.)
Protocol: Cells were treated with the indicated compounds and HDAC6 was detected by immunoblotting with an anti-HDAC6 antibody. Detection of actin was used as a control for protein loading. […] The membrane was blocked with 5% milk-TBS, and then incubated with primary antibodies overnight at 4 °C. The signal was developed with HRP-conjugated secondary antibodies and Amersham ECL Western Blotting Detection Reagent (Cytiva#RPN2106).

For data set [2], the target named is T1, HDAC6. Set-up: method as in PMID 34314730. The note with it: cited from earlier work.
For a further data set, the system named is U937 cells. The data set can be described thus: CTG cell viability assay. The conditions noted are these: U937, broad concentration range, 70 h. Type of data set: cell-based, human. The method, then:
U937, Jurkat, and HEK293T cells were plated with a density of 10^5 cells/ml, with 50 μl/well in a white 384 well plate (Corning #3570). Two hours after plating, XY-07-035 was dispensed to each well using HPd300e and incubated at 37 °C for 70 h. CellTiter-Glo (CTG) Luminescent Cell Viability Assay (Promega #G7572) was then used to measure cell viability. Aliquoted frozen CTG reagent and cell plates were warmed to room temperature prior to loading. After the plates were cooled to room temperature, the CTG reagent was loaded 15 μl/well with an electronic multichannel pipette. […] The luminescence signal was read over ten cycles for each data point on a PHERAstar FS microplate reader (BMG Labtech). The Relative abundance was calculated as the sum of the averages of duplicate individual 12-point dose-response data points.
Supplementary file mmc1.pdf: Supporting Figure S1 BMDM cells were primed by LPS (1 μg/ml) for 4 hrs and then challenged with 20 μM nigericin. 50 μl supernatant was collected every 15 min (up to 90 min) and mIL-1β level was determined by HTRF assay. […] DARPin F10 was detected by anti-HA antibody. […] Cells were treated with different concentrations of the degrader, and cell viability determined by CTG assay was normalized to the non-treated group. […] Supporting Figure S4: Cell viability was measured by resazurin assay, and fluorescence intensity was a representative of the viability.

Data set [3] has as its target T1, HDAC6. The data set can be described thus: HDAC6 degradation in THP-1 cells (immunoblot). Type of data set: cell-based. Further details: endogenous in cells; host or cells: PBMCs (with or without LPS priming). The conditions noted are these: non-differentiated and PMA-differentiated THP-1 cells.

On to `CN(C(=O)CCCNc1cccc2c1C(=O)N(C1CCC(=O)NC1=O)C2=O)c1ccc(NC(=O)CCCCCCC(=O)NO)cc1` (stereo not shown) [XY-07-35], for which the HDAC6 degradation entry on HDAC6 [1] is listed as “efficiently degraded”; at HDAC6 [3], “did not lead to HDAC6 degradation”. Also, the “degradation profile (specificity)” value on HDAC6 [2] was “highly specific for HDAC6”. In the data set on U937 cells, the cellular toxicity entry was “does not show cellular toxicity”.
